Assay results as given in publication PMC12390941, “Ubiquitin-specific protease 7-mediated stabilization of discoidin domain receptor 1 drives progression of TP53-Mutant cancers” (The Journal of Biological Chemistry, 2025).
Where two headings read alike, the source gives them in different places.

Key:
[1] = target: USP7 (Homo sapiens, UniProt Q93009); assay: biochemical
[2] = target: T1, USP1 (Homo sapiens, UniProt O94782); assay: selectivity panel of […] purified DUBs, ubiquitin-AMC substrate; ABPP DUBome; assay type: biochemical
T1 sequence (O94782 1-785): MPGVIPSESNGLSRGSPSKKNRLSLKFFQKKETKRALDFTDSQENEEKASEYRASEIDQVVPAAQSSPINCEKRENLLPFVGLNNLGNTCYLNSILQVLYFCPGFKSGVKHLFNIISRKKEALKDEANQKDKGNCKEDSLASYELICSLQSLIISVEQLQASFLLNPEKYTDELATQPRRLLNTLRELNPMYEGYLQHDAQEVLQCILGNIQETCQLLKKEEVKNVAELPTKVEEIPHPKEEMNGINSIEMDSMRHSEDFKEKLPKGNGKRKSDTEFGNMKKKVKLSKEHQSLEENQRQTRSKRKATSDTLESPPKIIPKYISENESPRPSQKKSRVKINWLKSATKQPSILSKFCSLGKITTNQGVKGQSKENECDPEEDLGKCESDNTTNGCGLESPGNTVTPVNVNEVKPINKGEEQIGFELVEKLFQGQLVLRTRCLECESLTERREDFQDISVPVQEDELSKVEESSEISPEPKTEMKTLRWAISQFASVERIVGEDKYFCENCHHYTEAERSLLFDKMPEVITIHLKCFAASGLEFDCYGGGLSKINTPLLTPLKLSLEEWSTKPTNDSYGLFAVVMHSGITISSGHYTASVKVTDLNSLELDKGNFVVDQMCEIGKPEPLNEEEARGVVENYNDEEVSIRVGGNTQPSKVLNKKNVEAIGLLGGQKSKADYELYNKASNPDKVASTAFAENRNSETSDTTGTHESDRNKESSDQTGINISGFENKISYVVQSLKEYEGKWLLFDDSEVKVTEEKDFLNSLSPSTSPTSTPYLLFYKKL

[3] = target: USP11 (Homo sapiens, UniProt P51784); assay: as above; assay type: biochemical
Chain of USP11 (P51784 whole entry): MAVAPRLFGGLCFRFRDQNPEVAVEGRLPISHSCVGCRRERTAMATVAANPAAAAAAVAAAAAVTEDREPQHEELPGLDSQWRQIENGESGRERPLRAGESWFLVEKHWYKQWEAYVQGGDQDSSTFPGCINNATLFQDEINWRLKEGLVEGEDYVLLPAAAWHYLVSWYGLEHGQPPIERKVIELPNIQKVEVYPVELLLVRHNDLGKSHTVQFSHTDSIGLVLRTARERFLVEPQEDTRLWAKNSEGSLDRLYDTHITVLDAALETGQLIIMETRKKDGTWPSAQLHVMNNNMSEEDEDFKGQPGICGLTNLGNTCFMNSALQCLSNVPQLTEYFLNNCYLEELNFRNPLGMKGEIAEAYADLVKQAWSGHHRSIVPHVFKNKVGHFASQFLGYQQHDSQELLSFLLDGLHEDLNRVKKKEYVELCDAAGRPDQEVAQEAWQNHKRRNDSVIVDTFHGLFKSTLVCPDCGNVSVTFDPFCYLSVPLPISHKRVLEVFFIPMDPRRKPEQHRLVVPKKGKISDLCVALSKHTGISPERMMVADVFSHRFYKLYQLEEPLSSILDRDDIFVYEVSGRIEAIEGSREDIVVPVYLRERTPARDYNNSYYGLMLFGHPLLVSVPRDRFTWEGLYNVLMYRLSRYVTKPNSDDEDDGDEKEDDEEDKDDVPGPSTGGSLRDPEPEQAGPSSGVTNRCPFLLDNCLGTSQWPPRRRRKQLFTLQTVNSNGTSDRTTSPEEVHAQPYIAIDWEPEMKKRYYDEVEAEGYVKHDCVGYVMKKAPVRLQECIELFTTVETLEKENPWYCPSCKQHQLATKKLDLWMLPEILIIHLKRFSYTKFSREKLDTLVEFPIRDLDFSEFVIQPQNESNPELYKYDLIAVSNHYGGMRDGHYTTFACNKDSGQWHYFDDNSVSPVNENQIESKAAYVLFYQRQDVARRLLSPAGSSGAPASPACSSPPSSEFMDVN

[4] = target: USP2 (Homo sapiens, UniProt O75604); assay: selectivity panel of […] purified DUBs, ubiquitin-AMC substrate; assay type: biochemical
Chain of USP2 (O75604 whole entry): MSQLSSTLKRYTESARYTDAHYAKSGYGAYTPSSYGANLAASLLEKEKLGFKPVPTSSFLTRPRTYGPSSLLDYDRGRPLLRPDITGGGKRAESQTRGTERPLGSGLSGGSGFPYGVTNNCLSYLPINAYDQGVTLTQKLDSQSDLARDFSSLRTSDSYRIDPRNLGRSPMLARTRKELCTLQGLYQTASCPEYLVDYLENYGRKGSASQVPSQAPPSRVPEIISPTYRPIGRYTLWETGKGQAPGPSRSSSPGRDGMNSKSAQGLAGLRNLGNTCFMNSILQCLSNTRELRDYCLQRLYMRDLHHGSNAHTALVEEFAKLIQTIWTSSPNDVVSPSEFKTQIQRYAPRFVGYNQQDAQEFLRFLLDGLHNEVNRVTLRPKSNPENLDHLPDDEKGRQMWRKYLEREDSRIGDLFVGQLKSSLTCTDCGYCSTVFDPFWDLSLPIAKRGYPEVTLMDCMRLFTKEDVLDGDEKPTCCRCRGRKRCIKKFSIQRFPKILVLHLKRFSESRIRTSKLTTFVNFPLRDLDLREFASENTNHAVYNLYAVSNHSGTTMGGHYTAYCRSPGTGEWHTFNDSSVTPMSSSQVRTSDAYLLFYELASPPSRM

Chain of USP7 (Q93009 whole entry): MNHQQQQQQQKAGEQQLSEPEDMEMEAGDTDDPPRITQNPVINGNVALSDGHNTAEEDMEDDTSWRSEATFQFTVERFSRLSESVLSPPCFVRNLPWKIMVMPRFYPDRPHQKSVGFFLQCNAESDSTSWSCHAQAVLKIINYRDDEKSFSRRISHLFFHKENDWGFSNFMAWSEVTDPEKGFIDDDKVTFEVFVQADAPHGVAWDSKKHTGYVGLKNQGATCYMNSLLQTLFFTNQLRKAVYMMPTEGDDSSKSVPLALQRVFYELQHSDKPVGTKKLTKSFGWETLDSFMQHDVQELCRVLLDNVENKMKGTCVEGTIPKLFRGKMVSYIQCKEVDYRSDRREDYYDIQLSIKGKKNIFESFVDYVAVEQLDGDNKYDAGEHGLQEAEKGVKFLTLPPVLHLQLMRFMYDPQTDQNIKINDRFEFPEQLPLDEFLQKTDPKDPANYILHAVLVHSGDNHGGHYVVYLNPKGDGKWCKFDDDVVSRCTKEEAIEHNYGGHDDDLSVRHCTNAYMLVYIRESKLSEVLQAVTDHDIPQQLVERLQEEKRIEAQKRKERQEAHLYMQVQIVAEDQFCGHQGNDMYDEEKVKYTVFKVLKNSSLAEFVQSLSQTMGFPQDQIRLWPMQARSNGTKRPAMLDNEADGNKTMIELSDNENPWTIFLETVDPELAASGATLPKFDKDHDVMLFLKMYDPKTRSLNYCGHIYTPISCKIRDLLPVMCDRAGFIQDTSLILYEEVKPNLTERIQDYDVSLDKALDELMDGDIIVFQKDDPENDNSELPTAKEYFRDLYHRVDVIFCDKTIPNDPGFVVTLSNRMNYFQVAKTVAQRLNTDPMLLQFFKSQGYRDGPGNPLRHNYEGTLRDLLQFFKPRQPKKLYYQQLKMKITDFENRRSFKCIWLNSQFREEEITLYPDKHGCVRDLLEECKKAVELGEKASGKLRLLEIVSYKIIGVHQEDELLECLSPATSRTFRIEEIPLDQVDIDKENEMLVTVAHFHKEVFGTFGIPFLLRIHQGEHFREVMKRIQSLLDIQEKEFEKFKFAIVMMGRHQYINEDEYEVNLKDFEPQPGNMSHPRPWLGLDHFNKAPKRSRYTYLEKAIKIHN

IC50 [1]	Structure (SMILES)	selectivity panel of 41 purified DUBs, ubiquitin-AMC substrate; ABPP DUBome [2]	IC50 ([1]; read-out: IC50)	selectivity panel of 41 purified DUBs, ubiquitin-AMC substrate; ABPP DUBome [3]	selectivity panel of 41 purified DUBs, ubiquitin-AMC substrate [4]
286 nM	O=C(C[C@@H](C(F)F)n1ccc(F)n1)N1CCC(O)(Cn2cnc3c(cnn3-c3ccc(F)cc3)c2=O)CC1 [FT671]	–	–	–	–
–	Cc1ccc(/C=C2\CNC/C(=C\c3ccc(C)cc3)C2=O)cc1 [NSC632839]	This screening identified USP7, USP11, USP2, and USP1 as the key targets.	3820 nM	This screening identified USP7, USP11, USP2, and USP1 as the key targets.	This screening identified USP7, USP11, USP2, and USP1 as the key targets.
